Results from US9681664B2, “Macrocyclic picolinamides as fungicides” (Dow Agrosciences LLC, priority 2012, dated 2017).
Like-named read-outs stand apart in the source and are kept apart here.

What was measured:
Assay type in all cases: in vivo
[1] = system: Puccinia triticina; Synonym: Puccinia recondite f. sp. tritici; experiment: Wheat brown rust (PUCCRT) disease control on wheat seedlings; details: Puccinia triticina; for pest or weed control at 121.5 g/ha: low volume application, 121.5 g/H
Procedure, shortened: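 Yuma wheat grown to first fully emerged leaf was inoculated with Puccinia triticina spore suspension either before or after fungicide treatment, held overnight at 22° C. and 100% RH in darkness, then kept at 24° C. Fungicide applied by booth sprayer to run-off (acetone/water, 110 ppm Triton X-100) or as EC by track spray.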

[2] = system: Uncinula necator; experiment: Grape powdery mildew (UNCINE) disease control; details: Erysiphe necator, 24 h, High volume application, 1 Day Protectant, read-out: UNCINE 1 DP disease control
Procedure: Technical grades of materials were dissolved in acetone, which were then mixed with nine volumes of water containing 110 ppm Triton X-100. The fungicide solutions were applied onto wheat seedlings using an automated booth sprayer to run-off. All sprayed plants were allowed to air dry prior to further handling. All fungicides were evaluated using the aforementioned method for their activity vs. all target diseases. Wheat leaf blotch and brown rust activity were also evaluated using track spray applications, in which case the fungicides were formulated as EC formulations, containing 0.1% Trycol 5941 in the spray solutions. Grape seedlings (variety Carignane) were grown in soil-less Metro mix, with one plant per pot, and used in the test when approximately one month old. Plants were inoculated 24 hr after fungicide treatment by shaking spores from infected leaves over test plants. Plants were maintained in a greenhouse set at 20° C. until disease was fully developed. Fungicide formulation, application and disease assessment on the sprayed leaves followed the procedures as described in the Example A.

[3] = system: Cercospora beticola; experiment: Leaf spot of sugar beets (CERCBE) disease control; details: 24 h, 1 Day Protectant, high volume, read-out: Disease Control CERCBE 1 DP
Procedure: Technical grades of materials were dissolved in acetone, which were then mixed with nine volumes of water containing 110 ppm Triton X-100. The fungicide solutions were applied onto wheat seedlings using an automated booth sprayer to run-off. All sprayed plants were allowed to air dry prior to further handling. All fungicides were evaluated using the aforementioned method for their activity vs. all target diseases. Wheat leaf blotch and brown rust activity were also evaluated using track spray applications, in which case the fungicides were formulated as EC formulations, containing 0.1% Trycol 5941 in the spray solutions. Sugar beet plants (variety HH88) were grown in soil-less Metro mix and trimmed regularly to maintain a uniform plant size prior to test. Plants were inoculated with a spore suspension 24 hr after fungicide treatments. Inoculated plants were kept in a dew chamber at 22° C. for 48 hr then incubated in a greenhouse set at 24° C. under a clear plastic hood with bottom ventilation until disease symptoms were fully expressed. Fungicide formulation, application and disease assessment on the sprayed leaves followed the procedures as described in the Example A.

[4] = system: Blumeria graminis f. sp. hordei; Synonym: Erysiphe graminis f. sp. hordei; experiment: Barley powdery mildew (ERYSGH) disease control; details: 24 h, 1 Day Protectant, high volume, read-out: Disease Control ERYSGH 1 DP
Procedure: (§1) Technical grades of materials were dissolved in acetone, which were then mixed with nine volumes of water containing 110 ppm Triton X-100. The fungicide solutions were applied onto wheat seedlings using an automated booth sprayer to run-off. All sprayed plants were allowed to air dry prior to further handling. All fungicides were evaluated using the aforementioned method for their activity vs. all target diseases. Wheat leaf blotch and brown rust activity were also evaluated using track spray applications, in which case the fungicides were formulated as EC formulations, containing 0.1% Trycol 5941 in the spray solutions. Barley seedlings (variety Harrington) were propagated in soil-less Metro mix, with each pot having 8 to 12 plants, and used in the test when first leaf was fully emerged. Test plants were inoculated by dusting with infected stock plants 24 hr after fungicide treatments. After inoculation the plants were kept in a greenhouse set at 20° C. for disease to develop. Fungicide formulation, application and disease assessment on the sprayed leaves followed the procedures as described in the Example A.

[5] = system: Rhyncosporium secalis; experiment: Barley scald (RHYNSE) disease control; details: 24 h, High volume application, 1 Day Protectant, read-out: RHYNSE 1 DP disease control
Procedure: as §1, with “inoculated by an aqueous spore suspension of Rhyncosporium secalis 24 hr” for “inoculated by dusting with infected stock plants 24 hr”, “kept in a dew room at 20° C. with 100% relative humidity for 48 hr. The plants were then transferred to a greenhouse” for “kept in a greenhouse”

[6] = 24 h, High volume application, 1 Day Protectant, read-out: PUCCRT 1DP disease control
[7] = 72 h, High volume application, 3 Day Curative, read-out: PUCCRT 3DC disease control
[8] = 24 h, Wheat Brown Rust, 1 Day Protectant, read-out: Disease Control PUCCRT 1 DP 121.5 g/H
[9] = 72 h, Wheat Brown Rust, 3 Day Curative, read-out: Disease Control PUCCRT 3 DC 121.5 g/H

Compound	pest or weed control at 100 ppm [1, 6] [%]	pest or weed control at 100 ppm [1, 7] [%]	pest or weed control at 100 ppm [2] [%]	pest or weed control at 100 ppm [3] [%]	pest or weed control at 100 ppm [4] [%]	pest or weed control at 100 ppm [5] [%]	pest or weed control at 121.5 g/ha [1, 8] [%]	pest or weed control at 121.5 g/ha [1, 9] [%]	pest or weed control at 100 ppm ([1]; 24 h, Wheat Brown Rust, 1 Day Protectant, high volume application, read-out: Disease Control PUCCRT 1 DP 100 ppm) [%]	pest or weed control at 100 ppm ([1]; 72 h, Wheat Brown Rust, 3 Day Curative, high volume application, read-out: Disease Control PUCCRT 3 DC 100 ppm) [%]
COc1ccc(O[C@H]2CCC[C@H](NC(=O)c3nccc(OC)c3OCOC(=O)C(C)C)C(=O)O[C@@H](C)[C@@H]2OC2CCCC2)cc1 [F169]	80 to 100	80 to 100	0 to 80	80 to 100	0 to 80	80 to 100	–	–	–	–
CCCO[C@H]1CCC[C@H](NC(=O)c2nccc(OC)c2OC(C)=O)C(=O)O[C@@H](C)[C@@H]1Oc1ccccc1 [F141]	80 to 100	80 to 100	0 to 80	80 to 100	80 to 100	80 to 100	–	–	–	–
COc1ccnc(C(=O)N[C@H]2CCC[C@H](Oc3ccccc3)[C@@H](OC)[C@H](C)OC2=O)c1OCOC(=O)C(C)C [F255]	–	–	80 to 100	0 to 80	0 to 80	80 to 100	80 to 100	80 to 100	–	–
CCOCC(=O)OCOc1c(OC)ccnc1C(=O)N[C@H]1CCC[C@H](Oc2ccccc2)[C@@H](OC(=O)C2CCCC2)[C@H](C)OC1=O [F237]	–	–	0 to 80	80 to 100	0 to 80	< 0	80 to 100	0 to 80	80 to 100	80 to 100
CCCO[C@H]1CCC[C@H](NC(=O)c2nccc(OC)c2OCOC(=O)C(C)C)C(=O)O[C@@H](C)[C@@H]1Oc1ccccc1 [F139]	80 to 100	80 to 100	0 to 80	80 to 100	< 0	80 to 100	–	–	–	–
CCCO[C@H]1CCC[C@H](NC(=O)c2nccc(OC)c2OCOC(C)=O)C(=O)O[C@@H](C)[C@@H]1Oc1ccccc1 [F138]	80 to 100	80 to 100	0 to 80	80 to 100	0 to 80	80 to 100	–	–	–	–
COc1ccnc(C(=O)N[C@H]2CCC[C@H](Oc3ccccc3)[C@@H](OC)[C@H](C)OC2=O)c1OCOC(C)=O [F252]	–	–	0 to 80	0 to 80	0 to 80	80 to 100	80 to 100	80 to 100	–	–
COc1ccnc(C(=O)N[C@H]2CCC[C@H](OCC(C)C)[C@@H](OC)[C@H](C)OC2=O)c1OCOC(C)=O [F251]	–	–	0 to 80	0 to 80	< 0	0 to 80	80 to 100	80 to 100	–	–
CCCO[C@H]1CCC[C@H](NC(=O)c2nccc(OC)c2OCOC(=O)C(C)C)C(=O)O[C@@H](C)[C@@H]1OC1CCCC1 [F154]	80 to 100	80 to 100	0 to 80	80 to 100	80 to 100	80 to 100	–	–	–	–
CCCCCO[C@H]1[C@H](C)OC(=O)[C@@H](NC(=O)c2nccc(OC)c2OCOC(C)=O)CCC[C@@H]1OC1CCCC1 [F166]	80 to 100	80 to 100	0 to 80	80 to 100	80 to 100	80 to 100	–	–	–	–
C=C(C)CO[C@H]1CCC[C@H](NC(=O)c2nccc(OC)c2OCOC(C)=O)C(=O)O[C@@H](C)[C@@H]1OC [F250]	–	–	0 to 80	0 to 80	0 to 80	0 to 80	0 to 80	80 to 100	–	–
